# Test results taken from US20030186817A1, “SUBSTITUTED 2,4-DIAMINO-1,3,5-TRIAZINES, PROCESSES FOR THEIR PREPARATION AND THEIR USE AS HERBICIDES AND PLANT GROWTH REGULATORS” (priority 1998, published 2003).
# Columns and labels:
# Format in all cases: in vivo
# [1] = tested on: Cyperus iria and Echinocloa crus-galli; test: Action on weeds in rice (paddy rice conditions, visual rating); settings: dammed height of water 2-3 cm, about three weeks after application; note: test concentration or dose not given here
# Description: Typical rice weeds such as Echinocloa crus galli and Cyperus iria are cultivated in a greenhouse under paddy rice conditions ([…] height of water: 2-3 cm). After the treatment, the test plants are set up in a greenhouse under optimum growth conditions and are maintained in this way under these conditions throughout the test period. About three weeks after application, evaluation is made by visual rating of the damage to the plants by comparison with untreated controls.
# [2] = tested on: Stellaria media, Amaranthus retroflexus, Sinapis avreuse, Avena fatura, Lolium multiflorum and Setaria viridis; test: Post-emergence action against weeds (greenhouse pot test, visual rating); settings: three-leaf stage, application rate of 3.0 kg or less of active substance per hectare, 3 to 4 weeks in greenhouse
# Procedure: Seeds of mono- and dicotyledonous weeds are placed in sandy loam soil in cardboard pots, covered with soil and cultivated in a greenhouse under good growth conditions. Two to three weeks after sowing, the test plants are treated at the three-leaf stage. The novel compounds, formulated as wettable powders or emulsion concentrates, are sprayed in various dosages onto the green parts of the plant at an application rate of from 600 to 8001 of water/ha (converted), and, after the test plants have remained in the greenhouse for 3 to 4 weeks under optimum growth conditions, the action of the preparations is rated visually by comparison with untreated controls. The novel compositions also have good post-emergence herbicidal activity against a broad spectrum of economically important weed grasses and broad-leaved weeds.
# [3] = tested on: Stellaria media, Amaranthus retroflexus, Sinapis avreuse, Avena fatura, Lolium multiflorum and Setaria viridis; test: Pre-emergence action against weeds (greenhouse pot test, visual rating); settings: application rate of 3.0 kg or less of active substance per hectare, trial period of 3 to 4 weeks
# Description: Seeds of mono- and dicotyledonous weed plants are placed in sandy loam soil in cardboard pots and covered with soil. The novel compounds, formulated as wettable powders or emulsion concentrates, are then applied to the surface of the soil cover in the form of an aqueous suspension or emulsion at an application rate of from 600 to 800 l of water/ha (converted), in various dosages. After the treatment, the pots are placed in a greenhouse and kept under good growth conditions for the weeds. After the test plants have emerged after a trial period of 3 to 4 weeks, the damage to the plants or the negative effect on emergence is rated visually by comparison with untreated controls. As shown by the test results, the novel compounds have good herbicidal pre-emergence activity against a broad spectrum of weed grasses and broad-leaved weeds.
SMILES,herbicidal activity against rice weeds (visual rating of damage) [1],herbicidal activity post-emergence (rated visually) [2],"herbicidal activity pre-emergence (damage to the plants or negative effect on emergence, rated visually) [3]"
Cc1ccccc1C(=O)OCC(C)Nc1nc(N)nc(C(C)C)n1 (stereo not drawn) [Example 41],very good herbicidal activity,good and in most cases very good herbicidal activity,good and in most cases very good herbicidal activity
CCC(COC(=O)c1ccccc1C)Nc1nc(N)nc(C(C)C)n1 (stereo not drawn) [Example 42],very good herbicidal activity,good and in most cases very good herbicidal activity,good and in most cases very good herbicidal activity
CCC(COC(=O)c1ccccc1OC(C)=O)Nc1nc(N)nc(C(C)C)n1 (stereo not drawn) [Example 46],very good herbicidal activity,good and in most cases very good herbicidal activity,
Cc1cccc(COCC(C)Nc2nc(N)nc(C(C)(C)F)n2)c1 (stereo not drawn) [Example 120],very good herbicidal activity,,good and in most cases very good herbicidal activity
Cc1ccc(COCC(C)Nc2nc(N)nc(C(C)(C)F)n2)cc1 (stereo not drawn) [Example 183],very good herbicidal activity,good and in most cases very good herbicidal activity,good and in most cases very good herbicidal activity
CC(COCc1ccccc1)Nc1nc(N)nc(C(C)(C)F)n1 (stereo not drawn) [Example 201],very good herbicidal activity,good and in most cases very good herbicidal activity,good and in most cases very good herbicidal activity
CC(CCOc1cc(F)cc(F)c1)Nc1nc(N)nc(C(C)(C)F)n1 (stereo not drawn) [Example 207],very good herbicidal activity,good and in most cases very good herbicidal activity,good and in most cases very good herbicidal activity
COc1cccc(OCCC(C)Nc2nc(N)nc(C(C)C)n2)c1 (stereo not drawn) [Example 213],very good herbicidal activity,good and in most cases very good herbicidal activity,good and in most cases very good herbicidal activity
CCC(CCOc1cccc(Cl)c1)Nc1nc(N)nc(C(C)F)n1 (stereo not drawn) [Example 220],very good herbicidal activity,good and in most cases very good herbicidal activity,good and in most cases very good herbicidal activity
CCC(CCOc1cccc(F)c1)Nc1nc(N)nc(C(C)(C)F)n1 (stereo not drawn) [Example 222],very good herbicidal activity,good and in most cases very good herbicidal activity,good and in most cases very good herbicidal activity
CCC(CCOc1cccc(OC)c1)Nc1nc(N)nc(C(F)(F)C(F)F)n1 (stereo not drawn) [Example 228],very good herbicidal activity,good and in most cases very good herbicidal activity,good and in most cases very good herbicidal activity
CCC(CCOc1ccccc1)Nc1nc(N)nc(C(C)C)n1 (stereo not drawn) [Example 231],very good herbicidal activity,good and in most cases very good herbicidal activity,good and in most cases very good herbicidal activity
CCC(CCOc1cccc(C)c1)Nc1nc(N)nc(C(C)(C)F)n1 (stereo not drawn) [Example 245],very good herbicidal activity,good and in most cases very good herbicidal activity,good and in most cases very good herbicidal activity
Cc1cccc(OCCC(C)Nc2nc(N)nc(C(C)(C)F)n2)c1 (stereo not drawn) [Example 253],very good herbicidal activity,good and in most cases very good herbicidal activity,good and in most cases very good herbicidal activity
CC(CCOc1cc(F)cc(F)c1)Nc1nc(N)nc(C(C)C)n1 (stereo not drawn) [Example 281],very good herbicidal activity,good and in most cases very good herbicidal activity,good and in most cases very good herbicidal activity
CC(CCOc1cccc(Cl)c1)Nc1nc(N)nc(C(C)(C)F)n1 (stereo not drawn) [Example 299],very good herbicidal activity,good and in most cases very good herbicidal activity,good and in most cases very good herbicidal activity
CC(CCOc1cccc(F)c1)Nc1nc(N)nc(C(C)C)n1 (stereo not drawn) [Example 300],very good herbicidal activity,,good and in most cases very good herbicidal activity
COc1cccc(OCCC(C)Nc2nc(N)nc(C(C)(C)F)n2)c1 (stereo not drawn) [Example 303],very good herbicidal activity,good and in most cases very good herbicidal activity,good and in most cases very good herbicidal activity
CCC(CCOc1ccccc1)Nc1nc(N)nc(C(F)(F)C(F)F)n1 (stereo not drawn) [Example 394],very good herbicidal activity,,good and in most cases very good herbicidal activity
CC(C)c1nc(N)nc(NCC=NOCc2ccccc2)n1 [Example 1253],,good and in most cases very good herbicidal activity,good and in most cases very good herbicidal activity
CC(F)c1nc(N)nc(NCC=NOCc2ccccc2)n1 (stereo not drawn) [Example 1307],,good and in most cases very good herbicidal activity,good and in most cases very good herbicidal activity
CCC(COCCOc1ccccc1)Nc1nc(N)nc(C(C)(C)F)n1 (stereo not drawn) [Example 1344],,good and in most cases very good herbicidal activity,good and in most cases very good herbicidal activity
CCC(COCCOc1ccccc1)Nc1nc(N)nc(C(C)C)n1 (stereo not drawn) [Example 1345],,good and in most cases very good herbicidal activity,good and in most cases very good herbicidal activity
CCC(COCCOc1ccccc1)Nc1nc(N)nc(C(C)F)n1 (stereo not drawn) [Example 1346],,good and in most cases very good herbicidal activity,good and in most cases very good herbicidal activity
CCC(COCCOc1cccc(Cl)c1)Nc1nc(N)nc(C(C)(C)F)n1 (stereo not drawn) [Example 1364],,good and in most cases very good herbicidal activity,good and in most cases very good herbicidal activity
CC(COCCOc1ccccc1)Nc1nc(N)nc(C(C)(C)F)n1 (stereo not drawn) [Example 1385],,good and in most cases very good herbicidal activity,good and in most cases very good herbicidal activity
CCCc1nc(N)nc(NC(C)COCCOc2ccccc2)n1 (stereo not drawn) [Example 1404],,good and in most cases very good herbicidal activity,good and in most cases very good herbicidal activity
